{
  "source": "patent US20050036992A1",
  "about": "“Novel use of liver X receptor agonists” (IRM LLC, priority 2002, published 2005)",
  "key": {"LXRs": {"test_system": "LXRs", "conditions": "Lehmann et al. 1997; cited from earlier work"}, "3T3-L1 adipocytes": {"test_system": "3T3-L1 adipocytes", "experiment": "Basal glucose uptake in 3T3-L1 adipocytes (14C-labeled 2-DOG)", "type": "cell-based", "conditions": "3T3-L1 adipocytes day 10, 24 hours serum-free; FIG. 9", "experimental": "3T3-L1 adipocytes at day 10 of differentiation were incubated for 24 hours with serum-free media supplemented with the indicated concentrations of T1317. The following day, basal glucose uptake (in the absence of insulin) of treated cells was measured in 96-well CytostarT plates using 14 C-labeled 2-DOG. Insulin (1 μg/ml) was used as positive control."}, "human GLUT4 promoter": {"test_system": "human GLUT4 promoter", "experiment": "Human GLUT4 promoter luciferase reporter in 3T3-L1 adipocytes", "type": "cell-based, mouse", "conditions": "3T3-L1 adipocytes day 8, serum-free media, 24 hours; FIG. 8B", "experimental": "To further examine whether LXR ligands activate the human GLUT4 promoter, clonal populations of 3T3-L1 cells carrying stably-integrated luciferase reporters under the control of various truncations of the human GLUT4 promoter were differentiated into adipocytes. On day 8 of differentiation, cells were incubated in serum-free media with the indicated concentrations of T1317. Luciferase activity was measured 24 hours later."}, "[1]": {"test_system": "C57B16 mice fed a high fat diet", "experiment": "Glucose tolerance test in diet-induced obese mice", "type": "in vivo, mouse", "conditions": "diet-induced obesity, 20 mg/kg/day for one week", "experimental": "To further examine effects of LXR agonists on glucose tolerance, C57B16 mice were fed a high fat diet for three months (Clinton/Cybulsky rodent diet; 40% kcal from fat, devoid of cholesterol) to induce obesity. After 3 months, mice were treated for one week with vehicle or 20 mg/kg/day GW3965. Glucose tolerance tests were performed by intraperitoneal injection of glucose (2 g/kg body weight) after 8 hours of fasting (FIG. […]). In addition, effect of GW3965 on glucose tolerance in lean C57B1/6 mice was also examined (FIG. 10B). The lean C57B1/6 mice maintained on normal chow diet and similarly treated as indicated above."}, "[2]": {"test_system": "PGC-1 and PEPCK expression in livers of LXR null mice", "experiment": "Liver gene expression in LXR null mice vs wild-type controls", "type": "in vivo, mouse", "conditions": "20 mg/kg/day gavage; FIG. 3A", "experimental": "(§1) This Example describes that the effects of LXR agonists on expression of genes involved in glucose metabolism is dependent on LXR expression. LXR null mice or wild-type controls on a mixed background (n=4 per group) were gavaged daily with GW3965 (20 mg/kg/day) or vehicle. At the end of the treatment period, mice were fasted for 12 hours, sacrificed and total RNA was isolated. Gene expression for was determined by real time quantitative PCR assays."}, "LXRα": {"target": "T1, LXRα (Homo sapiens, UniProt Q13133)", "T1 sequence (Q13133 1-447)": "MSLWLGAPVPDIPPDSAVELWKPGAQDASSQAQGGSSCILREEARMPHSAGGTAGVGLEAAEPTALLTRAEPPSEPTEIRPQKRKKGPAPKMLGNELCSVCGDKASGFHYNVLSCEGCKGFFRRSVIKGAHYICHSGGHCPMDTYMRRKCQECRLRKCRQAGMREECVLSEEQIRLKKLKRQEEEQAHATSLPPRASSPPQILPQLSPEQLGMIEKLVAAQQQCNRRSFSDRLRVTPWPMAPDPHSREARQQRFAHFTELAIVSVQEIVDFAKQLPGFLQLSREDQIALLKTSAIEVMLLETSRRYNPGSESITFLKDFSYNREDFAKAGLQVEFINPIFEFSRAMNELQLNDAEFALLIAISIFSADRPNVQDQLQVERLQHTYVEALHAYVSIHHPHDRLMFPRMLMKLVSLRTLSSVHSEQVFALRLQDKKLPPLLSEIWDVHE", "conditions": "Collins et al. 2002; cited from earlier work"}, "[3]": {"test_system": "GLUT4 expression in adipose tissue of LXR null mice", "experiment": "Adipose tissue gene expression in LXR null mice vs wild-type controls", "type": "in vivo, mouse", "conditions": "20 mg/kg/day gavage; FIG. 3B", "experimental": "as §1"}, "[4]": {"test_system": "obese, insulin-resistant ob/ob mice", "experiment": "Fasting plasma glucose in ob/ob mice, LXR agonist and/or metformin", "type": "in vivo, mouse", "conditions": "3 months, GW3965 20 mg/kg/day, metformin 300 mg/kg/day, FIG. 11", "experimental": "This Example describes treatment of mice with a combination of an LXR agonist and a known anti-diabetic drug. Obese, insulin-resistant ob/ob mice were treated with an LXR ligand, GW3965, at 20 mg/kg/day and/or metformin at 300 mg/kg/day for 3 months. Fasting plasma glucose levels were then determined."}, "[5]": {"test_system": "GLUT4 expression in white adipose tissue", "experiment": "Gene expression in white adipose tissue of mice gavaged with LXR agonist (real time quantitative PCR)", "type": "in vivo, mouse", "conditions": "C57/B16 mice, 20 mg/kg/day gavage, fasted 12 hours; FIG. 1B", "experimental": "(§2) This Example describes coordinated regulation of genes involved in glucose metabolism by LXR agonist in vivo. 10 week old female C57/B16 mice (n=9 per group) were gavaged daily with GW3965 (20 mg/kg/day) or vehicle. At the end of the treatment period, mice were fasted for 12 hours, sacrificed and total RNA was isolated. Gene expression for individual animals was determined by real time quantitative PCR assays. The results are presented in FIGS. 1 and 2 as average expression for each group +/−standard deviation."}, "LXRβ": {"target": "T2, LXRβ (Homo sapiens, UniProt P55055)", "T2 sequence (P55055 1-460)": "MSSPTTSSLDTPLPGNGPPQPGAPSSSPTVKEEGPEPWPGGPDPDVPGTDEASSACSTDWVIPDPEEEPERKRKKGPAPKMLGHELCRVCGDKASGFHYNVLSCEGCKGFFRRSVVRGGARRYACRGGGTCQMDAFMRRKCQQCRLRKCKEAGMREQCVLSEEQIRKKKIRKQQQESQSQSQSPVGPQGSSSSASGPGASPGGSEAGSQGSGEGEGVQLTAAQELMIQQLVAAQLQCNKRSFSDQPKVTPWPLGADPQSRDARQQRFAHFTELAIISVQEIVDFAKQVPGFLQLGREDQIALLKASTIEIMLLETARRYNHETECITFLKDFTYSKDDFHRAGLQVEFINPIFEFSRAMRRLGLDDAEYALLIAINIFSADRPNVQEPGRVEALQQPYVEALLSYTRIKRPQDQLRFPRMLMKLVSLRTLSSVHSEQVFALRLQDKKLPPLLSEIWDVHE", "conditions": "Collins et al. 2002; cited from earlier work"}, "[6]": {"test_system": "genes involved in glucose metabolism in liver", "experiment": "Gene expression in liver of mice gavaged with LXR agonist (real time quantitative PCR)", "type": "in vivo, mouse", "conditions": "C57/B16 mice, 20 mg/kg/day gavage, fasted 12 hours; FIG. 1A", "experimental": "as §2"}, "[7]": {"target": "T3, glucocorticoid receptor DNA binding domain and the ligand binding region of PPARα (Homo sapiens, UniProt Q07869)", "T3 sequence (Q07869 239-466 limits assumed)": "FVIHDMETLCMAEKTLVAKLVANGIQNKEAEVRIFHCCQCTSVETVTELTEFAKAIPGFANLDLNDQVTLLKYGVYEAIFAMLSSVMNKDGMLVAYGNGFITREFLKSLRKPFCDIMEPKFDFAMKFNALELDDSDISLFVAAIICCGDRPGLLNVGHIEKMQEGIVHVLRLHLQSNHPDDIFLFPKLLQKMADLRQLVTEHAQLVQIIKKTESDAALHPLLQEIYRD", "conditions": "Schmidt et al. 1999; cited from earlier work"}, "[8]": {"target": "T4, glucocorticoid receptor DNA binding domain and the ligand binding region of PPARβ (Homo sapiens, UniProt Q03181)", "T4 sequence (Q03181 211-439 limits assumed)": "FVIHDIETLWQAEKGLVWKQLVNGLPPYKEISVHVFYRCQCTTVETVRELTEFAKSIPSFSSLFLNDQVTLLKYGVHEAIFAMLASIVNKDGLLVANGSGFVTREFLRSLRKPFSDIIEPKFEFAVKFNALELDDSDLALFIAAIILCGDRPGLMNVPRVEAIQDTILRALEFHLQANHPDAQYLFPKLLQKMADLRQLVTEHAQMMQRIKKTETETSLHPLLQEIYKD", "conditions": "Schmidt et al. 1999; cited from earlier work"}, "[9]": {"target": "T5, glucocorticoid receptor DNA binding domain and the ligand binding region of LXRβ (Homo sapiens, UniProt P55055)", "T5 sequence (P55055 222-460 limits assumed)": "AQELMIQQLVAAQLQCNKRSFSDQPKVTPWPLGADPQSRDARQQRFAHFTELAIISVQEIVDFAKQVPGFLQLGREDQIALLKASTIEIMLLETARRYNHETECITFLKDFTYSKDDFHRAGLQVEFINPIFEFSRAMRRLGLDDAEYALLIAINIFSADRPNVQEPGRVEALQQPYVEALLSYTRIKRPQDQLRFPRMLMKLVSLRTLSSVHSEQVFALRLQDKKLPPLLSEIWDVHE", "conditions": "Schmidt et al. 1999; cited from earlier work"}},
  "data": [
    {"smiles": "C[C@H](CC[C@@H]1OC1(C)C)[C@H]1CC[C@H]2[C@@H]3CC=C4C[C@@H](O)CC[C@]4(C)[C@H]3CC[C@]12C", "note": "[24,25(S)-epoxycholesterol]", "values": [
      {"measurement": "activation of LXRs", "setting": "LXRs", "value": "activated"}
    ]},
    {"smiles": "O=S(=O)(c1ccccc1)N(CC(F)(F)F)c1ccc(C(O)(C(F)(F)F)C(F)(F)F)cc1", "note": "[T1317]", "values": [
      {"measurement": "basal glucose uptake (in the absence of insulin)", "setting": "3T3-L1 adipocytes", "value": "enhance glucose uptake"},
      {"measurement": "luciferase activity under control of human GLUT4 promoter truncations", "setting": "human GLUT4 promoter", "value": "direct target for regulation"}
    ]},
    {"smiles": "CC(C)[C@@H](O)CC[C@@H](C)[C@H]1CC[C@H]2[C@@H]3CC=C4C[C@@H](O)CC[C@]4(C)[C@H]3CC[C@]12C", "note": "[24(S)-hydroxycholesterol]", "values": [
      {"measurement": "activation of LXRs", "setting": "LXRs", "value": "activated"}
    ]},
    {"smiles": "O=C(O)Cc1cccc(OCCCN(Cc2cccc(C(F)(F)F)c2Cl)CC(c2ccccc2)c2ccccc2)c1", "note": "[GW3965]", "values": [
      {"measurement": "insulin resistance", "setting": "[1]", "value": "improve"},
      {"measurement": "glucose tolerance", "setting": "[1]; i.p. glucose 2 g/kg after 8 hours fasting", "value": "improve"},
      {"measurement": "regulation of PEPCK expression in livers of LXR null mice", "setting": "[2]", "value": "abolished"},
      {"measurement": "regulation of PGC-1 expression in livers of LXR null mice", "setting": "[2]", "value": "abolished"},
      {"measurement": "activation of LXRα", "setting": "LXRα", "value": "effective in activating"},
      {"measurement": "regulation of GLUT4 expression in adipose tissue of LXR null mice", "setting": "[3]", "value": "abolished"},
      {"measurement": "fasting plasma glucose level compared to control (vehicle)", "setting": "[4]", "value": "did not show significant difference"},
      {"measurement": "GLUT4 expression in white adipose tissue", "setting": "[5]", "value": "induces"},
      {"measurement": "activation of LXRβ", "setting": "LXRβ", "value": "effective in activating"},
      {"measurement": "expression of genes involved in gluconeogenesis in liver", "setting": "[6]", "value": "represses"},
      {"measurement": "glucokinase expression in liver", "setting": "[6]", "value": "induces"}
    ]},
    {"smiles": "CN(C)C(=N)N=C(N)N", "note": "[metformin]", "values": [
      {"measurement": "fasting plasma glucose level compared to control (vehicle)", "setting": "[4]", "value": "did not show significant difference"}
    ]},
    {"smiles": "CCCCCCCCCCCCCCOc1ccc(C(=O)O)o1", "note": "[TOFA, 5-tetradecyloxy-2-furancarboxylic acid]", "values": [
      {"measurement": "transactivation of chimeric GR DBD / PPARα ligand binding region receptor", "setting": "[7]", "value": "transactivates"},
      {"measurement": "transactivation of chimeric GR DBD / PPARβ ligand binding region receptor", "setting": "[8]", "value": "transactivates"},
      {"measurement": "transactivation of chimeric GR DBD / LXRβ ligand binding region receptor", "setting": "[9]", "value": "transactivates"}
    ]},
    {"smiles": "CC(C)CC[C@@H](O)[C@@H](C)[C@H]1CC[C@H]2[C@@H]3CC=C4C[C@@H](O)CC[C@]4(C)[C@H]3CC[C@]12C", "note": "[22(R)-hydroxycholesterol]", "values": [
      {"measurement": "activation of LXRs", "setting": "LXRs", "value": "activated"}
    ]}
  ]
}
